In general, pEC50 refers to the EC50 on a negative log10 scale, so that one unit is a factor of ten. Usually Papp A→B stands for the apparent permeability from the apical to the basolateral side of a cell layer. A higher Papp A→B goes with ready permeation. As a reminder, the Papp B→A is the apparent permeability from the basolateral to the apical side of a cell layer. Broadly, the pIC50 is the negative decadic logarithm of the IC50, by convention in mol/L.

pEC50, pIC50: −log10 of the molar value. Read-outs that look alike come from different tables or passages of the source.

Data set [1] concerns the target T1, KvLQT1/minK (Homo sapiens, UniProt P51787). The data set is described as follows: Ion Channel KvLQT1/minK Opener. Format: cell-based. The settings on record: for Emax: read-out: Max response.
Data set [2] can be described thus: Caco-2 permeability. Format: in vitro ADME. As to conditions: human; for recovery at 10 μM: Caco-2, Caco-2, 10 μM; for Papp A→B at 10 μM / Papp B→A at 10 μM: Caco-2, pH 6.5 and 7.4, 10 μM; for Papp A→B at 10 μM: apical to basolateral; for Papp B→A at 10 μM: basolateral to apical. The text has this:
In vitro ADME profiling of compounds was done by Eurofins Panlabs Inc (St Charles, MO, USA) using their ADME-Tox service (Cat Ref P375, Tier 1 ADME Panel). […] (28). The atom-based log P calculation method, called OsirisP, uses as an increment system and adds contributions of every atom based on its atom type. The prediction engine distinguishes a total of 368 atom types and was optimized using a training set of more than 5000 molecules with experimentally determined log P values. The free prediction engine has proven to outperform many alternative calculation methods (29).
Caco-2 cells were derived from a human colorectal adenocarcinoma. For permeability assays, cells were seeded at 1×10^5 cells/cm2 in 96 Multiscreen™ plates (Millipore) and used at days 21-25 post-seeding. Cells were used for 15 consecutive passages in culture. HBSS with 10 mM MES at pH 6.5 (apical side) or HBSS with HEPES at pH 7.4 (basolateral side) were used as the transport buffers. Test compounds were added at 10 μM concentration (final solvent concentration of 1% DMSO) to the apical side to determine apical to basolateral (A-B) transport and to the basal side to determine basolateral to apical (B-A) transport. For inhibition studies, 100 μM verapamil was included on both the A and B sides. Aliquots were taken from the donor side (A-B transport) at time zero and the end point, and from the receiver side (B-A transport) at the end point. Propranolol, labetalol, ranitidine, and colchicine (P-glycoprotein substrate) were included in each assay. Samples were analysed by HPLC-MS/MS for quantification. Papp (cm/sec) was calculated from the following equation: […]
Where VR is the volume of the receiver, C is the concentration of the test compound (either at the donor or receiver side and at mid-point or end point of the incubation), Δt is the incubation time (seconds) and A is the surface area of the cell monolayer (0.11 cm^2).
A general note: Caco-2 monolayers are a common model of the intestinal barrier.

In data set [3] the target is T2, PDE4D2 (Homo sapiens, UniProt Q08499).
T2 construct: purchased Signal Chem
T2 sequence (Q08499 303-809 limits assumed): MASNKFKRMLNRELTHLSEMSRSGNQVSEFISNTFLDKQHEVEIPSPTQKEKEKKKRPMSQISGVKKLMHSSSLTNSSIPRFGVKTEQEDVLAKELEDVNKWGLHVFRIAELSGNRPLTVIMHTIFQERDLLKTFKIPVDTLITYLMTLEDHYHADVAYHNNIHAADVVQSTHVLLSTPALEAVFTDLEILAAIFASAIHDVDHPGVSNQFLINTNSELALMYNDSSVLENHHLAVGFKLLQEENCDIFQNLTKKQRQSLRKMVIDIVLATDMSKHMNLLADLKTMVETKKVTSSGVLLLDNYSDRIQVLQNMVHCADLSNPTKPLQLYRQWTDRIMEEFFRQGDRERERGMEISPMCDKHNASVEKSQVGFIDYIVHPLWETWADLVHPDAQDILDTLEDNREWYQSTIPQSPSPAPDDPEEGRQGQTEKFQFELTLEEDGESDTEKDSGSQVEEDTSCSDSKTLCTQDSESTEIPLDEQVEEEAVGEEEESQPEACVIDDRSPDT
Description: Enzymatic PDE4D2 Inhibitor. In kind it is biochemical. The settings on record: for pIC50: read-out: RC50, result type IC50; for Emax: read-out: Max response. How it is done: Enzyme preparations were sourced from various vendors-AChE (R&D Systems), COX1 and COX2 (BPS Bioscience), MAOA (Sigma), PDE3A and PDE4D2 (Signal Chem). AChE: enzyme and test compound were pre-incubated for 15 min at RT before substrate addition. Acetylthiocholine and DTNB were added and incubated at RT for 30 min. Signal was detected by measuring absorbance at 405 nm. COX1 and COX2: enzyme stocks were diluted in assay buffer (40 mM Tris-HCl, 1×PBS, 0.5 mM Phenol, 0.01% Tween 20 and 10 nM Hematin) and allowed to equilibrate with compounds at RT for 30 min (binding incubation). Arachidonic acid (1.7 μM) and Ampliflu Red (2.5 μM) were prepared and dispended into a reaction plate. Plates were read immediately on a fluorimeter with the emission detection at 590 nm and excitation wavelength 544 nm. MAOA: enzyme and test compound were pre-incubated for 15 min at 37° C. before substrate addition. The reaction was initiated by addition of kynuramine and incubated at 37° C. for 30 min. The reaction was terminated by addition of NaOH. The amount of 4-hydroquinoline formed was determined through spectrofluorometric readout with the emission detection at 380 nm and excitation wavelength 310 nm. PDE3A and PDE4D2: enzyme and test compound were pre-incubated for 15 min at RT before substrate addition. cAMP substrate (at a concentration equal to EC80) was added and incubated at RT for 30 min. Enzyme reaction was terminated by addition of 9 mM IBMX. Signal was detected using the HitHunter® cAMP detection kit. Microplates were transferred to a PerkinElmer Envision™ instrument and read out as described for each assay. […] For enzyme activity assays, percentage inhibition was calculated using the following equation: […]

Data set [4] addresses T3, ADRA1A (Homo sapiens, UniProt P35348).
T3 sequence (P35348 1-466): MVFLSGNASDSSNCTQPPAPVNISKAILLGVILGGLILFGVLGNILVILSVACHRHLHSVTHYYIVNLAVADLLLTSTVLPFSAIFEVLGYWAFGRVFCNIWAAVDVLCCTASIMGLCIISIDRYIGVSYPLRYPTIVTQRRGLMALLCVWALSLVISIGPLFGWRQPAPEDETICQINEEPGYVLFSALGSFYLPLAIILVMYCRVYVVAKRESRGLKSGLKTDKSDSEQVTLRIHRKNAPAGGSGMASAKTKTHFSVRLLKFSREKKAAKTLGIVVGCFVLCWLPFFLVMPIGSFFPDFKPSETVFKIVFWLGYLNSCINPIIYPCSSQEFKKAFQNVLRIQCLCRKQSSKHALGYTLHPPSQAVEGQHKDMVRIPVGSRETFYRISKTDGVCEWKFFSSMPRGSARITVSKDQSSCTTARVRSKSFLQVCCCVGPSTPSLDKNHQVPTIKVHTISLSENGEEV
Description: Calcium Flux ADRA1A Agonist. As to conditions: for Emax: read-out: Max response. In general terms: Calcium assays in cells follow changes in intracellular calcium, usually with a dye or a luminescent sensor.
Description: (§1) In vitro pharmacological profiling of compounds was done against 78 functional assays for 47 common off-targets (30) by Eurofins DiscoverX Corporation (Fremont, CA, USA) using their SAFETYscan E/IC50 ELECT service (Cat Ref 87-1003DR, Safety47 Panel Dose Response). […] Compounds were tested in a range of 10 concentrations, following a 3-fold serial dilution, starting from 10 μM. The assays were performed utilizing the PathHunter enzyme fragment complementation (EFC) technology, FLIPR®-based cellular screening assays, and KINOMEscan kinase binding assays.
(§2) Prior to testing, cells (10,000 cells/well) were expanded from freezer stocks and seeded into a total volume of 50 μL into black walled, clear-bottom, Poly-D-lysine coated 384-well microplates and incubated at 37° C. […] Assays were performed in 1× dye loading buffer consisting of 1× Dye (DiscoverX, Calcium No Wash^PLUS kit, Catalog No. 90-0091), 1× Additive A and 2.5 mM Probenecid in HBSS/20 mM HEPES. Probenecid was prepared fresh. Prior to testing, media was aspirated from cells and replaced with 25 μL dye loading buffer. Cells were incubated for 45 min at 37° C. and then 20 min at RT. For agonist determination, 25 μL of 2× compound in HBSS/20 mM HEPES was added using a FLIPR Tetra (MDS). For antagonist determination, cells were pre-incubated with sample followed by agonist challenge at the EC80 concentration. 25 μL of 2× sample was added and cells were incubated for 30 min at RT in the dark to equilibrate plate temperature. After incubation, antagonist determination was initiated by addition of 25 μL of 1× compound with 3×EC80 agonist using FLIPR. For both agonist and antagonist formats, activity was measure on a FLIPR Tetra (MDS). Calcium mobilization was monitored for 2 min with a 5 sec baseline read.
(§3) FLIPR read—Area under the curve, was calculated for the entire 2 min read. Compound activity was analysed using CBIS data analysis suite (ChemInnovation, CA).

Data set [5] addresses T3, ADRA1A. Description: Calcium Flux ADRA1A Antagonist. The settings on record: for Emax: read-out: Max response.
Description: as §1, §2, §3
In data set [6] the target is HTR2A (Homo sapiens, UniProt P28223). The data set is described as follows: Calcium Flux HTR2A Antagonist. As to conditions: for Emax: read-out: Max response.
Chain of HTR2A (P28223 whole entry): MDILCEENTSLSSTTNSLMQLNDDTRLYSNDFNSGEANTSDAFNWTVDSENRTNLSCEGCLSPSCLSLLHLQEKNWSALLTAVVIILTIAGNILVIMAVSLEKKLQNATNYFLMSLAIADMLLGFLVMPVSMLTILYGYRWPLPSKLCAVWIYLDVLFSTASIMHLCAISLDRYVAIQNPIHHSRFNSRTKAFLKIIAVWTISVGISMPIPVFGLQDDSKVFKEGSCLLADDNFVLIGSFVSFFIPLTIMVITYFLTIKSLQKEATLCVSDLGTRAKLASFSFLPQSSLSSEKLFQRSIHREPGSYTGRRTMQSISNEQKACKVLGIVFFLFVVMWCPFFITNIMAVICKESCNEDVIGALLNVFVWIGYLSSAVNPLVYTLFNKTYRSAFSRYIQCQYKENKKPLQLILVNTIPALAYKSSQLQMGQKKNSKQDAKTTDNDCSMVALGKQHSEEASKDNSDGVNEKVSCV
Description: as §1, §2, §3
In data set [7] the target is CNR1 (Homo sapiens, UniProt P21554). Description: cAMP CNR1 Antagonist. The settings on record: for Emax: read-out: Max response.
Chain of CNR1 (P21554 whole entry): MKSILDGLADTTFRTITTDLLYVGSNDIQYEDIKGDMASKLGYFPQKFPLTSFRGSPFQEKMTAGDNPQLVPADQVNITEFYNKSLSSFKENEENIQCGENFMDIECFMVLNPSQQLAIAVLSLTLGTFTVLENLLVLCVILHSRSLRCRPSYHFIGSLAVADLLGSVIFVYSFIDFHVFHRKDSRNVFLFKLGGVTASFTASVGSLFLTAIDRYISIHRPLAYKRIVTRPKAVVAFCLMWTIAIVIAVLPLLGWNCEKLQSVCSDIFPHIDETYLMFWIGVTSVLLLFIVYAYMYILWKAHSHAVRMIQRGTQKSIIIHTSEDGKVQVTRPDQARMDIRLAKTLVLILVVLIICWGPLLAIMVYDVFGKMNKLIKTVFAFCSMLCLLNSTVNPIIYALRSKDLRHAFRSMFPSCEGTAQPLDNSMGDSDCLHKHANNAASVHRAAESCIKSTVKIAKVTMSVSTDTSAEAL
Description: In vitro pharmacological profiling of compounds was done against 78 functional assays for 47 common off-targets (30) by Eurofins DiscoverX Corporation (Fremont, CA, USA) using their SAFETYscan E/IC50 ELECT service (Cat Ref 87-1003DR, Safety47 Panel Dose Response). […] Compounds were tested in a range of 10 concentrations, following a 3-fold serial dilution, starting from 10 μM.
cAMP Hunter cell lines were expanded from freezer stocks. Prior to testing, cells were seeded in a total volume of 20 μL into white walled 384-well microplates and incubated at 37° C. cAMP modulation was determined using the DiscoverX HitHunter cAMP XS+ assay. For Gs agonist determination, cells were incubated with sample to induce response. For Gi agonist determination, cells were incubated with sample in the presence of EC80 forskolin to induce response. For both conditions, media was aspirated from cells and replaced with 15 μL 2:1 HBSS/10 mM HEPES:cAMP XS+ Ab reagent. Intermediate dilution of sample stocks was performed to generate 4× sample in assay buffer (containing 4×EC80 forskolin in the case of antagonist determination). 5 μL of 4× sample was added to cells and incubated at 37° C. or room temperature (RT) for 30 or 60 min. Final assay vehicle concentration was 1%. For antagonist determination, cells were pre-incubated with sample followed by agonist challenge at the EC80 concentration. Media was aspirated from cells and replaced with 10 μL 1:1 HBSS/HEPES:cAMP XS+ Ab reagent. 5 μL of 4× compound was added to the cells and incubated at 37° C. or RT for 30 min. 5 μL of 4×EC80 agonist was added to the cells and incubated at 37° C. or RT for 30 or 60 min. For Gi coupled GPCRs, EC80 forskolin was included. […] Microplates were read following signal generation with a PerkinElmer Envision™ instrument for chemiluminescent signal detection. Compound activity was analyzed using CBIS data analysis suite (ChemInnovation, CA). For Gs agonist mode assays, percentage activity was calculated using the following equation:
Data set [8] deals with T4, NET (Homo sapiens, UniProt P23975).
T4 construct: Eurofins DiscoverX Corporation 87-1003DR; host or cells: unnamed cell lines
T4 sequence (P23975 whole entry): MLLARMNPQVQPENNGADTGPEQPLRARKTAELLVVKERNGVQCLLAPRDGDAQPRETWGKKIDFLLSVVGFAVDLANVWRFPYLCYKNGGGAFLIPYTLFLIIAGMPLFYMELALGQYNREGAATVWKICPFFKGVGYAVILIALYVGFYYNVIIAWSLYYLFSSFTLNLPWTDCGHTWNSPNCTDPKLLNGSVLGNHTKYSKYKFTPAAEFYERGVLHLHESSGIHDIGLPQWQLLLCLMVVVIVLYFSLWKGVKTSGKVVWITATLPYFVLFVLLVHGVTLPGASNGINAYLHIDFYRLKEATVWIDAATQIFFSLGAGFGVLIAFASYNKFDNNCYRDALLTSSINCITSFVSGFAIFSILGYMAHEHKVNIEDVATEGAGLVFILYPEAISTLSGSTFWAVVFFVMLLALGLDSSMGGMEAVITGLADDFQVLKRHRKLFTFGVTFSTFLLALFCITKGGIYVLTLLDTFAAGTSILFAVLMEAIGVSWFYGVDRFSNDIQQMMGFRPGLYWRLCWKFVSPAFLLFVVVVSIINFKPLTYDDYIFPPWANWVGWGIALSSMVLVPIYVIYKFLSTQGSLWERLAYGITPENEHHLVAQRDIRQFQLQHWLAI
The data set is described as follows: Transporter NET Blocker. Format: cell-based. As to conditions: for Emax: Transporter NET Blocker, read-out: Max response. How it is done:
After cell plating and incubation, media was removed an 25 μL of 1× compound in 1×HBSS/0.1% BSA was added. Compounds were incubated with cells for 30 min at 37° C. After compound incubation, 25 μL of 1× dye loading buffer (1× dye, 1×HBSS/20 mM HEPES) was added to the wells. Cells were incubated for 30-60 min at 37° C. After incubation, microplates were transferred to a PerkinElmer Envision™ instrument for fluorescent signal detection. […] For blocker mode assays, percentage of inhibition was calculated using the following formula: […]

Data set [9] addresses T1, KvLQT1/minK. Description: Ion Channel KvLQT1/minK Blocker. In kind it is cell-based. As to conditions: for Emax: read-out: Max response.
[10] abbreviates: read-out: percentual recovery, apical to basolateral direction.
Where [11] appears, read: read-out: percentual recovery, basolateral to apical direction.

With `CC(C)(C)c1ccc(C#CC(O)c2ccccc2)cc1` (racemic) [Compound 3.3, rac-3-(4-(tert-butyl)phenyl)-1-phenylprop-2-yn-1-ol], the pEC50 in data set [1] and in [4] was under 5.00 each time. For the same molecule, the Emax in data set [1] was 0%; in [3] it was 0%; in data set [4], 0.6%; in data set [5] it was 0%; in data set [6] it was 0%; in [7], 17.5%. For the same molecule, the Emax in data set [8] was found to be 0%; in data set [9], 47.5%. In addition, the results for the recovery at 10 μM in data set [2] (setting [10]) and in data set [2] (setting [11]) were 6% and 15%, respectively. For the same molecule, the apical-to-basolateral permeability (Papp A→B) at 10 μM in data set [2] is 4 nm/s. The Papp B→A at 10 μM in data set [2] amounted to 1 nm/s. The negative logarithm of the IC50 (pIC50) in data set [3] (Enzymatic PDE4D2 Inhibitor), in data set [5], in data set [6], in data set [7], in data set [8] and in [9] was under 5.00 throughout.
For `Clc1cccc(C#Cc2n[nH]c3ncccc23)c1` [Compound 10.1, 3-((3-chlorophenyl)ethynyl)-1H-pyrazolo[3,4-b]pyridine], the Emax was found to be 2% in [1] (Ion Channel KvLQT1/minK Opener); 2.7% in data set [3] (Enzymatic PDE4D2 Inhibitor); 0.6% in data set [4]; 0% in [5]; 0% in data set [6]; 0% in data set [7]. In addition, the Emax turned out to be 13.6% in data set [8] and 0% in [9] (Ion Channel KvLQT1/minK Blocker). The pEC50 is under 5.00 in [1] (Ion Channel KvLQT1/minK Opener, read-out: RC50, result type EC50) and under 5.00 in data set [4]. The recovery at 10 μM in data set [2] (setting [10]) was determined as 13%; in data set [2] (setting [11]), 44%. Further, the Papp A→B at 10 μM in [2] turned out to be 33 nm/s. The Papp B→A at 10 μM in data set [2] was 7 nm/s. In addition, the pIC50 is under 5.00 in data set [3] (Enzymatic PDE4D2 Inhibitor); under 5.00 in data set [5]; under 5.00 in data set [6]; under 5.00 in [7]; under 5.00 in [8]; under 5.00 in data set [9] (Ion Channel KvLQT1/minK Blocker, read-out: RC50, result type IC50).

The values above are taken from US20250186408A1, “TREATMENT OF PHARMACORESISTANT EPILEPSY” (Katholieke Universiteit Leuven, priority 2021, published 2025).
